“And” between values parts separate entries of the source, which are not always exact repeats. Equal entries are not always repeated. The source made the active and inactive calls.
How the values were obtained:
[1] = molecular target: T1, Heat shock factor protein 1 (Mus musculus, UniProt P38532); experiment: decrease of HSF1-responsive luciferase luminescence – cell-based, NIH3T3, dose retest, confirmation (AID 2382); type: functional;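 note: NIH3T3 fibroblasts with HSF1-driven luciferase reporter stressed by proteasome inhibitor MG132; luminescence from HSF1-driven luciferase expression after 8 hours of MG132 stress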
T1 sequence (P38532 whole entry): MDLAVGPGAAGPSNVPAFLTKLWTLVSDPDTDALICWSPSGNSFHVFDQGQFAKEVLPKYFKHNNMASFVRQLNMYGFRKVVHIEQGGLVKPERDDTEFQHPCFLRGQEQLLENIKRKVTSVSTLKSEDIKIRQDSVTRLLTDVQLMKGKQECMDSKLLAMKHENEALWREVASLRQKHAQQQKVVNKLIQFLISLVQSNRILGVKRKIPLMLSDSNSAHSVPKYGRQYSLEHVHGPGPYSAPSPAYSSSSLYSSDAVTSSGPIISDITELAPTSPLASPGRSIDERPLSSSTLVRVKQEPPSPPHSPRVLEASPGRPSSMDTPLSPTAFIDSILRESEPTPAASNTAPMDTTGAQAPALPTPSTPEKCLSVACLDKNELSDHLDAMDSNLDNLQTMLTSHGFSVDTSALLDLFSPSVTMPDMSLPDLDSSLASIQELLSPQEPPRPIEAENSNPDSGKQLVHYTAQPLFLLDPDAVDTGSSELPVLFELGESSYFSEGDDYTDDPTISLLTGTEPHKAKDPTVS

[2] = molecular target: T2, DNA dC->dU-editing enzyme APOBEC-3A (Homo sapiens, UniProt P31941); experiment: A3A deaminase inhibition for selectivity – biochemical, dose response (AID 504722); type: functional
T2 sequence (P31941 whole entry): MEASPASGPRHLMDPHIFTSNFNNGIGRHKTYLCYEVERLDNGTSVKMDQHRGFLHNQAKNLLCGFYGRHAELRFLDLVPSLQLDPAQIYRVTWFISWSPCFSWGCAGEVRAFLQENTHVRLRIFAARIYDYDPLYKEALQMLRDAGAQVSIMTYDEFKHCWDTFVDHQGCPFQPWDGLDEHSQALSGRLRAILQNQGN

[3] = molecular target: T3, DNA dC->dU-editing enzyme APOBEC-3G (Homo sapiens, UniProt Q9HC16); experiment: Dose Response confirmation of small molecule APOBEC3G DNA Deaminase Inhibitors via a fluorescence-based single-stranded DNA deaminase assay. [Related pubchem assays (depositor defined):AID493012, AID493028]; type: functional
T3 sequence (Q9HC16 whole entry): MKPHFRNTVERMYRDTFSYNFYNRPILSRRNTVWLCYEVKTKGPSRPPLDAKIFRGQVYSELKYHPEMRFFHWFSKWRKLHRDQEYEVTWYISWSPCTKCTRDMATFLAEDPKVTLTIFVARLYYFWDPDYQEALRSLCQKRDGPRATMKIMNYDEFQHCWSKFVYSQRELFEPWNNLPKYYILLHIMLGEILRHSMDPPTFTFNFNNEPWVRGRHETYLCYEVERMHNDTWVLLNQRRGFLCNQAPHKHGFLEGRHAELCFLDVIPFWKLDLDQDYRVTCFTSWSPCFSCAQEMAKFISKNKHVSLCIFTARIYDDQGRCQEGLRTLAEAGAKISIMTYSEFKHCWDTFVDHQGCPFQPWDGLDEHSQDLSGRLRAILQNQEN

[4] = molecular target: T2, DNA dC->dU-editing enzyme APOBEC-3A; experiment: SAR analysis of small molecule inhibitors of APOBEC3A DNA Deaminase via a fluorescence-based single-stranded DNA deaminase assay - Set 2.; type: functional; details: read-out: IC50_Mean
[5] = molecular target: T3, DNA dC->dU-editing enzyme APOBEC-3G; experiment: SAR analysis of small molecule inhibitors of APOBEC3G DNA Deaminase via a fluorescence-based single-stranded DNA deaminase assay - Set 2.; type: functional; details: read-out: IC50_Mean
[6] = molecular target: T3, DNA dC->dU-editing enzyme APOBEC-3G; experiment: inhibition of APOBEC3G ssDNA deamination – biochemical, fluorescence, single-stranded DNA substrate, SAR follow-up (AID 602136); type: functional; details: read-out: IC50_Mean
[7] = molecular target: T2, DNA dC->dU-editing enzyme APOBEC-3A; experiment: SAR analysis of small molecule inhibitors of APOBEC3A DNA Deaminase via a fluorescence-based single-stranded DNA deaminase assay.; type: functional; details: read-out: IC50_Mean
[8] = molecular target: T2, DNA dC->dU-editing enzyme APOBEC-3A; experiment: Dose Response confirmation of small molecule APOBEC3A DNA Deaminase Inhibitors via a fluorescence-based single-stranded DNA deaminase assay. [Related pubchem assays (depositor defined):AID493011, AID493024]; type: functional
[9] = molecular target: T3, DNA dC->dU-editing enzyme APOBEC-3G; type: functional
[10] = molecular target: T4, Apoptotic protease-activating factor 1 (Homo sapiens, UniProt O14727); experiment: SAR analysis of small molecule Activators of Apaf-1 in a Fluorescent assay.; type: functional; details: read-out: EC50_Mean;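 note: caspase-3 cleavage of fluorogenic Rh110 DEVD substrate downstream of apoptosome activation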
T4 sequence (O14727 whole entry): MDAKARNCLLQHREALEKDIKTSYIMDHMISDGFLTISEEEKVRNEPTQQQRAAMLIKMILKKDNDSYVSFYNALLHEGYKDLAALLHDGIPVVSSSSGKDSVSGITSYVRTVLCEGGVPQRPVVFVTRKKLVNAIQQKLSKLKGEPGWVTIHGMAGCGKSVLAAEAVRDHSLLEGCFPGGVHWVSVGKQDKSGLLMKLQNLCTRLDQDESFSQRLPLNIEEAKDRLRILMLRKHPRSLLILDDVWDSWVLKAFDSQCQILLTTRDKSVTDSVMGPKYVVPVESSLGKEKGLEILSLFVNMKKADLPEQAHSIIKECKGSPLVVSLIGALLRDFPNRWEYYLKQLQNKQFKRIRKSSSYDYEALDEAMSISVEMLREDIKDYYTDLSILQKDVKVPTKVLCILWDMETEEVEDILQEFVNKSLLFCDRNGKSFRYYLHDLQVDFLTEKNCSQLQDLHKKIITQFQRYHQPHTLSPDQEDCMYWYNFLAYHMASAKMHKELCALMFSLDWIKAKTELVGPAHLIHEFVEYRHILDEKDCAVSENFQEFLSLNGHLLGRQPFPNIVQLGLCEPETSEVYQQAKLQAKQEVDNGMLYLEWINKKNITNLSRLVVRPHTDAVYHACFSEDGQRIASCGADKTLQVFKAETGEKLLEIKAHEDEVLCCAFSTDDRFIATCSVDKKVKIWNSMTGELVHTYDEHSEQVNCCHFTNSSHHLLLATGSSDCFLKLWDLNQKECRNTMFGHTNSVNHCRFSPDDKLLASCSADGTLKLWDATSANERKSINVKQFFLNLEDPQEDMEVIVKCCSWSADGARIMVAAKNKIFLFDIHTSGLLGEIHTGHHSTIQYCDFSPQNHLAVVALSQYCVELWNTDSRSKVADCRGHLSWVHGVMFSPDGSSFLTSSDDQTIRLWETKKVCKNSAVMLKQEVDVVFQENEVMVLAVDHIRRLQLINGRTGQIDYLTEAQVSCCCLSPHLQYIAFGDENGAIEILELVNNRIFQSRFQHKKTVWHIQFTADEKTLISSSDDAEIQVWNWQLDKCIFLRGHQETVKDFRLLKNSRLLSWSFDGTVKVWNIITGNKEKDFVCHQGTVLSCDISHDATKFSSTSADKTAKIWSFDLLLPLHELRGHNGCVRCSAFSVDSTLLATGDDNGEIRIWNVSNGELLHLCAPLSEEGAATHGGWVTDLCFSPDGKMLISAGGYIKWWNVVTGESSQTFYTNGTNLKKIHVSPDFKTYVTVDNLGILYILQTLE

Melanocortin receptor 4 = Melanocortin receptor 4 (Homo sapiens, UniProt P32245); type: functional, cell-based;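 note: Cell-based assay with luminescence read-out, confirmatory dose-response testing for agonist activity of biased ligands at MC4R; human U2OS cells with tagged receptor and beta-arrestin; potency of agonists that increase receptor coupling to beta-arrestin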
Chain of Melanocortin receptor 4 (P32245 whole entry): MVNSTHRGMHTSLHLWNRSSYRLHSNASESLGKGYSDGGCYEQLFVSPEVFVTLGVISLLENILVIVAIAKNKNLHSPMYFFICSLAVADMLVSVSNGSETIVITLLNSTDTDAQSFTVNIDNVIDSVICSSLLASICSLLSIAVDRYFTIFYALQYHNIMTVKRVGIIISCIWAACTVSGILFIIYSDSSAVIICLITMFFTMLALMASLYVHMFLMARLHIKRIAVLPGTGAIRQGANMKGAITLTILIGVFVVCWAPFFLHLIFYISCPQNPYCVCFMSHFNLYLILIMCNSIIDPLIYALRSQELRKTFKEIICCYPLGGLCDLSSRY

[11] = molecular target: T5, High affinity choline transporter 1 (Homo sapiens, UniProt Q9GZV3); experiment: human choline transporter blockers, potency – cell-based, 5-point CRC, membrane potential dye, dose response (AID 504840); type: functional
T5 sequence (Q9GZV3 whole entry): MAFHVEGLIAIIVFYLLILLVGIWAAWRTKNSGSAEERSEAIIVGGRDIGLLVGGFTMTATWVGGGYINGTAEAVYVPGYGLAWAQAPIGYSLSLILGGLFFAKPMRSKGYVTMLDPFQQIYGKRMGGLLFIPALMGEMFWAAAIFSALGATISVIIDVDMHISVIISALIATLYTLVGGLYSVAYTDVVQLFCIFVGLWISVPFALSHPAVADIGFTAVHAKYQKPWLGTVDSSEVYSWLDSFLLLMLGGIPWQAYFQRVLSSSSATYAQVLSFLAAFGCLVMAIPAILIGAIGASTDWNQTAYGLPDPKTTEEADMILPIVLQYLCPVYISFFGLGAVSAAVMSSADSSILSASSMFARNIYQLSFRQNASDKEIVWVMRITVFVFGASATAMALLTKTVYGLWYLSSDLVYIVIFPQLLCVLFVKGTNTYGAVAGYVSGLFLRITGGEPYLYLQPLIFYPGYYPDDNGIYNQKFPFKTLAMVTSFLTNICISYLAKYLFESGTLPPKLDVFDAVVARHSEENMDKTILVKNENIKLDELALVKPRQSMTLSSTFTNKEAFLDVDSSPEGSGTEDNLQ

[12] = molecular target: T5, High affinity choline transporter 1; experiment: human choline transporter blockers, potency – cell-based, 10-point CRC, membrane potential dye, dose response (AID 588401); type: functional;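 note: membrane potential dye fluorescence of choline-evoked depolarization via CHT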
[13] = molecular target: T6, Carboxy-terminal domain RNA polymerase II polypeptide A small phosphatase 1 (Homo sapiens, UniProt Q9GZU7); experiment: CTDSP1 inhibitors, concentration-response, biochemical, absorbance readout, ultra-high-throughput screen actives (AID 540297); type: functional
T6 sequence (Q9GZU7 whole entry): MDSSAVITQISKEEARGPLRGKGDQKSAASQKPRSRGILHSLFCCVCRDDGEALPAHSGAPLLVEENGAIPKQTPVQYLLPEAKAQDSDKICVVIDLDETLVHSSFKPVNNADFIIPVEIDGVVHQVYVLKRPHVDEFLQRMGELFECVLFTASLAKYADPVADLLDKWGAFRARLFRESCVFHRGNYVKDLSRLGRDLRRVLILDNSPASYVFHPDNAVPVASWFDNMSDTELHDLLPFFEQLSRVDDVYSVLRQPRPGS

[14] = molecular target: DNA (cytosine-5)-methyltransferase 1 (Homo sapiens, UniProt P26358); experiment: inhibition of DNA methylation by DNMT1 – biochemical, fluorescent molecular beacon, confirmation (AID 602386); type: functional
Chain of DNA (cytosine-5)-methyltransferase 1 (P26358 whole entry): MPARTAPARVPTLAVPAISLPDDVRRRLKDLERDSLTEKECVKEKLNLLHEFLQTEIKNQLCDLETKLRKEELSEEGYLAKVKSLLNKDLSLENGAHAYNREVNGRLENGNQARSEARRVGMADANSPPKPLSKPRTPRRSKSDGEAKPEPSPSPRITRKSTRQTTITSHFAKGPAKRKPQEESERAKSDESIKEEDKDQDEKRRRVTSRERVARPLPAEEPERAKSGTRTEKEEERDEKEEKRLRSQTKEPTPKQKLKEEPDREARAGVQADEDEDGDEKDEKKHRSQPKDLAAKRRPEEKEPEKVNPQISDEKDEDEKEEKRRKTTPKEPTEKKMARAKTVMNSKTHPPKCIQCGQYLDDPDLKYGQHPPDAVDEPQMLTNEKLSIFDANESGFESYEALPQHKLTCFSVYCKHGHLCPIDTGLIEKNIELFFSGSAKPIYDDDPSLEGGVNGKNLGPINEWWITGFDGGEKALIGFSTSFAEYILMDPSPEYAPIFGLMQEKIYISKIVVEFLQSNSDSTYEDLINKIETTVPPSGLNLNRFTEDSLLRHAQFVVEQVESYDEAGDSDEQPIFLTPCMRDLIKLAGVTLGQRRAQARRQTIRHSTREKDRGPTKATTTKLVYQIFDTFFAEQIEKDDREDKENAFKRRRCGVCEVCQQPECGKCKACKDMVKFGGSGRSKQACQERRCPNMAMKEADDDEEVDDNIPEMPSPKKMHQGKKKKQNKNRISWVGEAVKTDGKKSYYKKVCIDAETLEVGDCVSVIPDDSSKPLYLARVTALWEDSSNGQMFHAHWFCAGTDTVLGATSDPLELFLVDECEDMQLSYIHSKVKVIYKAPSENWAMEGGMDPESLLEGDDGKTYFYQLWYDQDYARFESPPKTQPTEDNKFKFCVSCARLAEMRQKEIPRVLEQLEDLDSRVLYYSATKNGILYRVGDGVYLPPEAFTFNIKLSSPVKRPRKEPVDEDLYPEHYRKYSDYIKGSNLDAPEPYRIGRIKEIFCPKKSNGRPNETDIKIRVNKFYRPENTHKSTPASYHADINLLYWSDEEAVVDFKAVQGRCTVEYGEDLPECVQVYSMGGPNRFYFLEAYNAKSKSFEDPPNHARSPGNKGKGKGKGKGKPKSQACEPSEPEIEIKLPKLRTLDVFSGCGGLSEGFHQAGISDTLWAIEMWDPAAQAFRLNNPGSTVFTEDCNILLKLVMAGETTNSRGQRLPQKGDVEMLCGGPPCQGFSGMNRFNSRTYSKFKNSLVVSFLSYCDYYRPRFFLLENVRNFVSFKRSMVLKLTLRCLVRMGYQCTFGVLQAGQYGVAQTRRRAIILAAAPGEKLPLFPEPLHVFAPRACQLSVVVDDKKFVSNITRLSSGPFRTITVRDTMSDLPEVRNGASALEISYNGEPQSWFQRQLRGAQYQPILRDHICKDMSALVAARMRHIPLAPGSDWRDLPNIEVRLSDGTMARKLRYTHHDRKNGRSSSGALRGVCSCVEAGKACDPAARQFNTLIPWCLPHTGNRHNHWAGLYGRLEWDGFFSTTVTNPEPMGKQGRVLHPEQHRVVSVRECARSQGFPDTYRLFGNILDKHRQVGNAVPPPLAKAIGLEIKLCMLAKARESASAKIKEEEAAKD

[15] = molecular target: T7, Rac GTPase-activating protein 1 (Homo sapiens, UniProt Q9H0H5); experiment: blockers of MgcRacGAP-driven Rac1 GTP hydrolysis – biochemical, ADP Hunter fluorescence, primary and confirmatory, confirmation (AID 624330); type: functional
T7 sequence (Q9H0H5 whole entry): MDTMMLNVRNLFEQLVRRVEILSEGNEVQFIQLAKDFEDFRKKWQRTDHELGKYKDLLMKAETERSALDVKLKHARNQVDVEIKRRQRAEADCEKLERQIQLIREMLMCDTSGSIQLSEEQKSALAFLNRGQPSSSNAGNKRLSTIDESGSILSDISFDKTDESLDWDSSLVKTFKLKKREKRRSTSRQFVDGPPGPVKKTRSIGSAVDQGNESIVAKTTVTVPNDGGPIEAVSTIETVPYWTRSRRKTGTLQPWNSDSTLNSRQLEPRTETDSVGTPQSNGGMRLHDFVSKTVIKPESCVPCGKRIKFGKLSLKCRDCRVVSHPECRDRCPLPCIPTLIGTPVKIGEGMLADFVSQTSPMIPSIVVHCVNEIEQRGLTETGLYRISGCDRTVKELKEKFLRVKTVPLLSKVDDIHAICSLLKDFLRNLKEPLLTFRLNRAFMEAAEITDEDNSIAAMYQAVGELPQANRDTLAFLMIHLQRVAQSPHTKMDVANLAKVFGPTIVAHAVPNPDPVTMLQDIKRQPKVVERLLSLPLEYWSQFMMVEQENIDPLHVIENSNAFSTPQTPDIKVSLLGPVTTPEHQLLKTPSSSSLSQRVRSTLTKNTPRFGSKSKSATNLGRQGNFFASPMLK

[16] = Luminescence Cell-Based Dose Confirmation HTS to Identify Activators of 5'UTR Stem-Loop Driven Alpha-Synuclein mRNA Translation in H4 Neuroglioblastoma Cells. [Related pubchem assays: 1829 (Project Summary), 1814 (Primary HTS)]; type: functional
[17] = Luminescence Cell-Based Dose Response HTS to Identify Activators of Luciferase Translation or Activity in H4 […] Cells. [Related pubchem assays: 1829 (Project Summary), 1814 (Primary HTS)]; type: functional
H4 = experiment: Luminescence Cell-Based Dose Response HTS to Identify Activators of 5'UTR Stem-Loop Driven Prion Protein mRNA Translation in H4 Neuroglioblastoma Cells. [Related pubchem assays: 1829 (Project Summary), 1814 (Primary HTS)]; type: functional; details: Homo sapiens

Nn1c(-c2cccc(Br)c2)n[nH]c1=S
EC50 [1]: 108 µM (active)
IC50 [2]: > 100 µM (inactive)
IC50 [3]: 1.45 µM (active)
IC50 [4]: > 99 µM (inactive)
IC50 [5]: 539 nM (active)
IC50 [6]: 0.55 µM (active)
IC50 [7]: > 99 µM (inactive)

CCn1ncc(-c2ccnc3cc(C(=O)O)nn23)c1C
IC50 [8]: 3.82 µM (active)
IC50 [9]: > 100 µM (inactive)
IC50 [4]: 16.4 µM (inactive) and 24.7 µM (inactive)
IC50 [5]: 93 µM (inactive) and 69.6 µM (inactive)
IC50 [6]: > 99 µM (inactive)
IC50 [7]: 10.7 µM (inactive)

COc1ccc(OC)c(NC(=O)CC(C)S(=O)(=O)c2ccc3c(c2)CCN3C(C)=O)c1 (stereo unspecified)
EC50 [10]: > 100 µM (inactive)

COC(=O)[C@@H]1COC(c2ccccc2C(F)(F)F)=N1
EC50 [10]: > 100 µM (inactive)

Cc1ccc(NC(=O)c2ccccc2OCC(=O)c2ccc(F)cc2)cc1
EC50 (Melanocortin receptor 4): > 89.2 µM (inactive)

C=CCNc1nc(SC)nc2ccsc12
IC50 [11]: 1.73 µM (active)
IC50 [12]: 0.891 µM (active)

CCc1ccc(/C(C)=N/NC(=O)CNC(=O)/C=C/c2ccco2)cc1
IC50 [13]: 0.844 µM (active)
IC50 [14]: 6.95 µM (active)
IC50 [15]: 106 µM (active)

O=C1NN(c2ccccc2)C(=O)/C1=C/c1coc2ccccc2c1=O
EC50 [16]: 14.5 µM (active)
EC50 [17]: 44.7 µM (active)
EC50 (H4): 13.4 µM (active)
IC50 [11]: 5.3 µM (active)
IC50 [12]: 1.27 µM (active)

Reference: ChEMBL document CHEMBL1201862, “PubChem BioAssay data set” (2004)
